From doi:10.1101/2025.05.30.657074, “A covalent recognition strategy enables conspecific mate identification” (bioRxiv, 2025)

Columns and labels:
OR1_I343A = test: GCaMP6 calcium flux assay, BmOR1/Orco mutant I343A; format: cell-based, Bombyx mori
Text: (§1) The first insect pheromone system characterized at the molecular level is that of Bombyx mori, a moth long known to navigate towards its mate guided solely by pheromone cues with impressive navigation accuracy. Two PR/Orco complexes, BmOR1/BmOrco and BmOR3/BmOrco, have been linked to the behavioral responses to pheromones in B. mori (Figure 1A). The conspecific pheromone, bombykol, is detected through BmOR1/Orco and leads to sexual attraction. The heterospecific pheromone, bombykal, is sensed through BmOR3/Orco, and leads to suppression of mating behavior. We first characterized the extent to which both PR/Orco complexes are selective towards their cognate ligands. […] In this assay, ligand-activation of the heteromeric ion channel complexes by addition of either bombykol or bombykal leads to calcium influx, read out as GCaMP6 fluorescence changes that can be monitored in real-time and dose-dependent manner using a fluorescence plate reader. […]
(§2) HEK293T cells were maintained at 37°C with 5% carbon dioxide and grown in high glucose DMEM enhanced with 10% FBS and 1% GlutaMAX (Gibco). […] Cells were kept at 37°C for 18-20 hours before being used for fluorescence plate reading. […]
(§3) The kinetics of the fluorescence change upon odorant addition were measured using the FDSS/µcell kinetic plate Imager (Hamamatsu, C13299). […]

OR1_M344A = OR1_M344A (Bombyx mori, UniProt Q5WA61, M344A); test: GCaMP6 calcium flux assay, BmOR1/Orco mutant M344A; format: cell-based
Text: (§4) The first insect pheromone system characterized at the molecular level is that of Bombyx mori, a moth long known to navigate towards its mate guided solely by pheromone cues with impressive navigation accuracy. Two PR/Orco complexes, BmOR1/BmOrco and BmOR3/BmOrco, have been linked to the behavioral responses to pheromones in B. mori (Figure 1A). The conspecific pheromone, bombykol, is detected through BmOR1/Orco and leads to sexual attraction. The heterospecific pheromone, bombykal, is sensed through BmOR3/Orco, and leads to suppression of mating behavior. We first characterized the extent to which both PR/Orco complexes are selective towards their cognate ligands. We used a previously established calcium flux functional assay where we co-transfected HEK293 cells with either BmOR1 or BmOR3, along with the coreceptor, BmOrco (here on referred to as Orco), and the fluorescent calcium reporter, GCaMP6 (Figure 1C). In this assay, ligand-activation of the heteromeric ion channel complexes by addition of either bombykol or bombykal leads to calcium influx, read out as GCaMP6 fluorescence changes that can be monitored in real-time and dose-dependent manner using a fluorescence plate reader. […]
as §2
(§5) On the day of the GCaMP6 assay, Bravo (Agilent), a versatile liquid handler was used to prepare both the odorant plate and the assay plate (transfected cell plate) prior to the fluorescence readout using the FDSS/µcell kinetic plate Imager (Hamamatsu, C13299).
(§6) For the odorant plate, the DMSO dissolved stock solutions were diluted in 19.8 µL of Reading buffer (20 mM HEPES/NaOH (pH 7.4), 1× HBSS (Gibco), 3 mM Na2CO3, 1 mM MgSO4, and 5 mM CaCl2) to give a final concentration ranging from 3.16 nM to 1 mM with 1% DMSO. […]
as §3

OR3_T91N = OR3_T91N (Bombyx mori, UniProt Q5FBE0, T91N); test: GCaMP6 calcium flux assay, BmOR3/Orco mutant T91N; format: cell-based
Text: as §4, §2, §5, §6, §3

OR1_N93T = OR1_N93T (Bombyx mori, UniProt Q5WA61, N93T); test: GCaMP6 calcium flux assay, BmOR1/Orco mutant N93T; format: cell-based
Text: as §4, §2, §5, §6, §3

OR3_T91A = OR3_T91A (Bombyx mori, UniProt Q5FBE0, T91A); test: GCaMP6 calcium flux assay, BmOR3/Orco mutant T91A; format: cell-based
Text: as §4, §2, §5, §6, §3

OR1_L340A = OR1_L340A (Bombyx mori, UniProt Q5WA61, L340A); test: GCaMP6 calcium flux assay, BmOR1/Orco mutant L340A; format: cell-based
Text: as §4, §2, §5, §6, §3

BmOR3/Orco = BmOR3/Orco (Bombyx mori, UniProt Q5FBE0); test: GCaMP6 calcium flux assay, wild-type BmOR3/Orco; format: cell-based
Text: (§7) The first insect pheromone system characterized at the molecular level is that of Bombyx mori, a moth long known to navigate towards its mate guided solely by pheromone cues with impressive navigation accuracy. Two PR/Orco complexes, BmOR1/BmOrco and BmOR3/BmOrco, have been linked to the behavioral responses to pheromones in B. mori (Figure 1A). The conspecific pheromone, bombykol, is detected through BmOR1/Orco and leads to sexual attraction. The heterospecific pheromone, bombykal, is sensed through BmOR3/Orco, and leads to suppression of mating behavior. We first characterized the extent to which both PR/Orco complexes are selective towards their cognate ligands. We used a previously established calcium flux functional assay where we co-transfected HEK293 cells with either BmOR1 or BmOR3, along with the coreceptor, BmOrco (here on referred to as Orco), and the fluorescent calcium reporter, GCaMP6 (Figure 1C). In this assay, ligand-activation of the heteromeric ion channel complexes by addition of either bombykol or bombykal leads to calcium influx, read out as GCaMP6 fluorescence changes that can be monitored in real-time and dose-dependent manner using a fluorescence plate reader. […] But we also found both PR/Orco complexes to be somewhat promiscuous: both complexes are activated by their non-cognate pheromones (bombykal for BmOR1/Orco and bombykol for BmOR3/Orco) with a response that is ~10 fold smaller than their cognate pheromones. […] Instead, two complexes with reciprocal specificities enable an unequivocal response to bombykal and bombykol across all concentrations, ensuring the behavioral accuracy needed for mate selection.
(§8) The assay was performed similarly to method descriptions in previous studies.
(§9) All DNA constructs used in this assay were cloned into a modified pME18 vector that contains a SV40 promotor.
(§10) Each transfection condition (per well) contained a total of 300 ng of plasmids in 1:1:1 ratio of the GCaMP6, Orco, and the corresponding OR plasmid that was diluted in 4.8 uL of OptiMEM (Gibco) along with 0.1 uL of P3000. The mixture was incubated for 5 minutes and then further incubated for 20 minutes after being mixed with Lipofectamine 3000 (Invitrogen) diluted in OptiMEM. This mixture was scaled accordingly to batch transfect 50-100 wells per construct per plate.
(§11) HEK293T cells were maintained at 37°C with 5% carbon dioxide and grown in high glucose DMEM enhanced with 10% FBS and 1% GlutaMAX (Gibco). Cells were detached with TrypLE Express Enzyme and resuspended in FluoroBrite DMEM (Gibco) with 10% FBS and 1% GlutaMAX (Gibco) to a concentration of 5 × 10^5 cells/ml. Cells were combined with each transfection condition and added to 2x16 wells of a 384-well plate (Grenier CELLSTAR). Cells were kept at 37°C for 18-20 hours before being used for fluorescence plate reading.
(§12) Odorant plates were prepared using D300e (Hewlett Packard), a digital, non-contact dispenser. Briefly, stock solutions of bombykol and bombykal were prepared in DMSO and plated onto 384-plates (Greiner, Catalog #784201) in a titrating volume to obtain a concentration series ranging between 316 nM and 100 mM with a final volume of 0.2 µL.
(§13) The odorant plates were kept at −20 °C until usage.
as §5
(§14) For the odorant plate, the DMSO dissolved stock solutions were diluted in 19.8 µL of Reading buffer (20 mM HEPES/NaOH (pH 7.4), 1× HBSS (Gibco), 3 mM Na2CO3, 1 mM MgSO4, and 5 mM CaCl2) to give a final concentration ranging from 3.16 nM to 1 mM with 1% DMSO. For the cell plate, the FluoroBrite DMEM (Gibco) was exchanged out with the […]
as §3

OR3_K58A = OR3_K58A (Bombyx mori, UniProt Q5FBE0, K58A); test: GCaMP6 calcium flux assay, BmOR3/Orco mutant K58A; format: cell-based
Text: as §7, §8, §9, §10, §11, §12, §13, §5, §14, §3

OR1_S60A = OR1_S60A (Bombyx mori, UniProt Q5WA61, S60A); test: GCaMP6 calcium flux assay, BmOR1/Orco mutant S60A; format: cell-based
Text: as §4, §2, §5, §6, §3

B. mori male moths = tested on: B. mori male moths; design: method as in PMID 24744736, PMID 22836825; details: conspecific male moths; cited from earlier work
OR1_L342A = OR1_L342A (Bombyx mori, UniProt Q5WA61, L342A); test: GCaMP6 calcium flux assay, BmOR1/Orco mutant L342A; format: cell-based
Text: as §4, §2, §5, §6, §3

OR3_K58S = OR3_K58S (Bombyx mori, UniProt Q5FBE0, K58S); test: GCaMP6 calcium flux assay, BmOR3/Orco mutant K58S; format: cell-based
Text: as §7, §8, §9, §10, §11, §12, §13, §5, §14, §3

OR3_K58Q = OR3_K58Q (Bombyx mori, UniProt Q5FBE0, K58Q); test: GCaMP6 calcium flux assay, BmOR3/Orco mutant K58Q; format: cell-based
Text: as §7, §8, §9, §10, §11, §12, §13, §5, §14, §3

OR1_F161A = test: GCaMP6 calcium flux assay, BmOR1/Orco mutant F161A; format: cell-based, Bombyx mori
Text: as §1, §2, §3

BmOR1/Orco = BmOR1/Orco (Bombyx mori, UniProt Q5WA61); test: GCaMP6 calcium flux assay, wild-type BmOR1/Orco; format: cell-based
Text: as §7, §8, §9, §10, §11, §12, §13, §5, §14, §3

OR1_N93A = OR1_N93A (Bombyx mori, UniProt Q5WA61, N93A); test: GCaMP6 calcium flux assay, BmOR1/Orco mutant N93A; format: cell-based
Text: as §4, §2, §5, §6, §3

Chain of OR3_K58S (Q5FBE0 entry or part of it K58S): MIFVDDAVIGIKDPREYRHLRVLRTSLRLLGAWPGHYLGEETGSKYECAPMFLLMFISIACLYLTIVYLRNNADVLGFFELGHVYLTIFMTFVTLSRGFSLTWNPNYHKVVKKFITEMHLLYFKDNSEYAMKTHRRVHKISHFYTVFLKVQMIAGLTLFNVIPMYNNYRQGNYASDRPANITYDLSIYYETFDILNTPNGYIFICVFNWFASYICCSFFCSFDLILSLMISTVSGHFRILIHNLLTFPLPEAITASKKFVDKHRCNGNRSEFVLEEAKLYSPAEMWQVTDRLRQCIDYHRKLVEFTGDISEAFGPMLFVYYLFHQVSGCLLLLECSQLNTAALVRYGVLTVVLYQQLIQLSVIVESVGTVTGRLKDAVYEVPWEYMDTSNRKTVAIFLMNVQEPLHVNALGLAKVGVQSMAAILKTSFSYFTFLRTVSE
Chain of OR3_K58S (Q7YT34 entry or part of it, stated change not applied, further chain): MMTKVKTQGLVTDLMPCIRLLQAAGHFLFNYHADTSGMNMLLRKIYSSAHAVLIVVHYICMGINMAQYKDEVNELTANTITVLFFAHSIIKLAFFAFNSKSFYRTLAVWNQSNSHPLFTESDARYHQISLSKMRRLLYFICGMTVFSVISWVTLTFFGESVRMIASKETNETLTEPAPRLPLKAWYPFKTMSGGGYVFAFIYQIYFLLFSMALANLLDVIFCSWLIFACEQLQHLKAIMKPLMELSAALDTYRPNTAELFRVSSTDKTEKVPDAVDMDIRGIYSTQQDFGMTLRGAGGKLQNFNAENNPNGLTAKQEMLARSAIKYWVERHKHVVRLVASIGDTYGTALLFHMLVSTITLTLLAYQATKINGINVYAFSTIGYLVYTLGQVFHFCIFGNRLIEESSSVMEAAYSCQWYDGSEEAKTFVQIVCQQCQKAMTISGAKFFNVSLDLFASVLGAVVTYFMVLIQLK
Chain of BmOR3/Orco (Q5FBE0 entry or part of it): as the sequence (Q5FBE0 entry or part of it K58S) above, with S58K counted along it
Chain of BmOR3/Orco (Q7YT34 entry or part of it, further chain): as the sequence (Q7YT34 entry or part of it, stated change not applied, further chain) above
Chain of OR1_N93T (Q5WA61 entry or part of it N93T): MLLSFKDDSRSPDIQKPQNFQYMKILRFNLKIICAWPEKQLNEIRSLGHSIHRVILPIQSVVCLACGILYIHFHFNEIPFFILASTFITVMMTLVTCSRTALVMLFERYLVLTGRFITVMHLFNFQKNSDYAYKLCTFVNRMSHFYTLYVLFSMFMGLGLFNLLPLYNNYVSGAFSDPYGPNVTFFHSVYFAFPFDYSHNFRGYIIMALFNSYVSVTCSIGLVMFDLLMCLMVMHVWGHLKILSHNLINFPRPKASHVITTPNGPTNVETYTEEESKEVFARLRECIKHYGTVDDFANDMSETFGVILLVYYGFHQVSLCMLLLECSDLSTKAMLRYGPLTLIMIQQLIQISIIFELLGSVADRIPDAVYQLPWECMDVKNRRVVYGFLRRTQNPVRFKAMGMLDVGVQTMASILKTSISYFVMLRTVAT
Chain of OR1_N93T (Q7YT34 entry or part of it, stated change not applied, further chain): as the sequence (Q7YT34 entry or part of it, stated change not applied, further chain) above
Chain of OR3_K58Q (Q5FBE0 entry or part of it K58Q): as the sequence (Q5FBE0 entry or part of it K58S) above, with S58Q counted along it
Chain of OR3_K58Q (Q7YT34 entry or part of it, stated change not applied, further chain): as the sequence (Q7YT34 entry or part of it, stated change not applied, further chain) above
Chain of OR1_M344A (Q5WA61 entry or part of it M344A): as the sequence (Q5WA61 entry or part of it N93T) above, with T93N, M344A counted along it
Chain of OR1_M344A (Q7YT34 entry or part of it, stated change not applied, further chain): as the sequence (Q7YT34 entry or part of it, stated change not applied, further chain) above
Chain of OR1_N93A (Q5WA61 entry or part of it N93A): as the sequence (Q5WA61 entry or part of it N93T) above, with T93A counted along it
Chain of OR1_N93A (Q7YT34 entry or part of it, stated change not applied, further chain): as the sequence (Q7YT34 entry or part of it, stated change not applied, further chain) above
Chain of OR1_L342A (Q7YT34 entry or part of it, stated change not applied): as the sequence (Q7YT34 entry or part of it, stated change not applied, further chain) above
Chain of OR1_L342A (Q5WA61 entry or part of it L342A): as the sequence (Q5WA61 entry or part of it N93T) above, with T93N, L342A counted along it
Chain of OR1_S60A (Q7YT34 entry or part of it, stated change not applied): as the sequence (Q7YT34 entry or part of it, stated change not applied, further chain) above
Chain of OR1_S60A (Q5WA61 entry or part of it S60A): as the sequence (Q5WA61 entry or part of it N93T) above, with S60A, T93N counted along it
Chain of BmOR1/Orco (Q7YT34 entry or part of it): as the sequence (Q7YT34 entry or part of it, stated change not applied, further chain) above
Chain of BmOR1/Orco (Q5WA61 entry or part of it): as the sequence (Q5WA61 entry or part of it N93T) above, with T93N counted along it
Chain of OR3_T91A (Q7YT34 entry or part of it, stated change not applied): as the sequence (Q7YT34 entry or part of it, stated change not applied, further chain) above
Chain of OR3_T91A (Q5FBE0 entry or part of it T91A): as the sequence (Q5FBE0 entry or part of it K58S) above, with S58K, T91A counted along it
Chain of OR3_K58A (Q5FBE0 entry or part of it K58A): as the sequence (Q5FBE0 entry or part of it K58S) above, with S58A counted along it
Chain of OR3_K58A (Q7YT34 entry or part of it, stated change not applied, further chain): as the sequence (Q7YT34 entry or part of it, stated change not applied, further chain) above
Chain of OR3_T91N (Q5FBE0 entry or part of it T91N): as the sequence (Q5FBE0 entry or part of it K58S) above, with S58K, T91N counted along it
Chain of OR3_T91N (Q7YT34 entry or part of it, stated change not applied, further chain): as the sequence (Q7YT34 entry or part of it, stated change not applied, further chain) above
Chain of OR1_L340A (Q5WA61 entry or part of it L340A): as the sequence (Q5WA61 entry or part of it N93T) above, with T93N, L340A counted along it
Chain of OR1_L340A (Q7YT34 entry or part of it, stated change not applied, further chain): as the sequence (Q7YT34 entry or part of it, stated change not applied, further chain) above

## CCC/C=C\C=C\CCCCCCCCCO [Bombykol, bombykol]
OR1_I343A
  Max (ΔF/F ± SE): 0.14 ± 0.01 ΔF/F
OR1_M344A
  EC50: 1000 nM
OR1_M344A; OR1_M344A
  Hill Coefficient (n± SE): 1.5 ± 0.3
  Max (ΔF/F ± SE): 0.84 ± 0.03 ΔF/F
OR3_T91N
  EC50: 1000 nM
OR3_T91N; OR3_T91N
  Hill Coefficient (n± SE): 1.7 ± 0.2
  Max (ΔF/F ± SE): 0.64 ± 0.07 ΔF/F
OR1_N93T
  EC50: 1000 nM
OR1_N93T; OR1_N93T
  Hill Coefficient (n± SE): 2.0 ± 0.3
  Max (ΔF/F ± SE): 1.02 ± 0.08 ΔF/F
OR3_T91A
  EC50: 3.98 µM
OR3_T91A; OR3_T91A
  Hill Coefficient (n± SE): 0.9 ± 0.3
  Max (ΔF/F ± SE): 0.31 ± 0.05 ΔF/F
OR1_L340A
  EC50: 2000 nM
OR1_L340A; OR1_L340A
  Hill Coefficient (n± SE): 2.0 ± 0.3
  Max (ΔF/F ± SE): 0.48 ± 0.08 ΔF/F
BmOR3/Orco; EC50, HEK293 cells co-transfected with BmOR3, BmOrco, GCaMP6
  EC50: 1300 nM
BmOR3/Orco; Mean (-log EC50 ± SE), wild-type BmOR3/Orco
  EC50: 1290 nM
BmOR3/Orco; bombykol vs cognate bombykal at BmOR3/Orco
  response to non-cognate pheromone, fold smaller than cognate pheromone: ~ 10 fold
BmOR3/Orco; wild-type BmOR3/Orco
  Hill Coefficient (n± SE): 1.0 ± 0.1
BmOR3/Orco; wild-type BmOR3/Orco, ΔF/F at highest ligand concentration
  Max (ΔF/F ± SE): 0.61 ± 0.04 ΔF/F
OR3_K58A
  EC50: 251 nM
OR3_K58A; OR3_K58A
  Hill Coefficient (n± SE): 15 ± 6
  Max (ΔF/F ± SE): 0.15 ± 0.06 ΔF/F
OR1_S60A
  EC50: 501 nM
OR1_S60A; OR1_S60A
  Hill Coefficient (n± SE): 2.1 ± 0.3
  Max (ΔF/F ± SE): 1.1 ± 0.1 ΔF/F
B. mori male moths
  behavioral response: aggressive attraction behavior
OR1_L342A
  EC50: 794 nM
OR1_L342A; OR1_L342A
  Hill Coefficient (n± SE): 1.4 ± 0.2
  Max (ΔF/F ± SE): 0.87 ± 0.08 ΔF/F
OR3_K58S
  EC50: 3.16 µM
OR3_K58S; OR3_K58S
  Hill Coefficient (n± SE): 1.2 ± 0.3
  Max (ΔF/F ± SE): 0.42 ± 0.07 ΔF/F
OR3_K58Q
  EC50: 794 nM
OR3_K58Q; OR3_K58Q
  Hill Coefficient (n± SE): 5 ± 3
  Max (ΔF/F ± SE): 0.66± 0.06 ΔF/F
OR1_F161A
  Max (ΔF/F ± SE): 0.04 ± 0.02 ΔF/F
BmOR1/Orco; EC50, HEK293 cells co-transfected with BmOR1, BmOrco, GCaMP6
  EC50: 270 nM
BmOR1/Orco; Mean (-log EC50 ± SE), wild-type BmOR1/Orco
  EC50: 269 nM
BmOR1/Orco; wild-type BmOR1/Orco
  Hill Coefficient (n± SE): 1.6 ± 0.1
BmOR1/Orco; wild-type BmOR1/Orco, ΔF/F at highest ligand concentration
  Max (ΔF/F ± SE): 0.98 ± 0.07 ΔF/F
OR1_N93A
  EC50: 5.01 µM
OR1_N93A; OR1_N93A
  Hill Coefficient (n± SE): 1.0 ± 0.3
  Max (ΔF/F ± SE): 0.63 ± 0.04 ΔF/F
